Results published in paper PMC5374622, “Morintides: cargo-free chitin-binding peptides from Moringa oleifera” (BMC Plant Biology, 2017).
Positions of bridges follow the written chain, without caps; N, C: chain ends. Non-standard residues stand in square brackets, D forms with d. No end group written: not given here. pGlu = O=C1CC[C@@H](C(=O)O)N1

Columns and labels:
[1] = assay type: physicochemical
Description: Purified mO1 (40 μg) was dissolved in water and incubated at 100 °C for 1 h. A linear peptide RV-14 ([…]) synthesized in our laboratory was used as a control. After incubation, the samples were subjected to RP-UPLC to assess the presence and extent of degradation.

[2] = test system: Alternaria brassiciola (CICC 2646); assay: Disc diffusion assay; assay type: cell-based; conditions: 17.5 to 70 μg mO1 on 6 mm discs, PDA plates, 24 h at 25 °C
Description: (§1) The susceptibility of seven fungal strains obtained from the China Center of Industrial Culture Collection (CICC), namely, Curvularia lunata (CICC 40301), Fusarium oxysporum (CICC 2532), Aspergillus niger (CICC 2089), Verticillium dahilae (CICC 2534), Rhizoctonia solani (CICC 40259), Alternaria alternata (CICC 2465) and Alternaria brassiciola (CICC 2646) to mO1 (17.5 to 70 μg) was tested using a disc diffusion assay. Potato dextrose agar (PDA) plates were used to grow C. lunata, R. solani, V. dahilae A. alternata, and A. brassiciola (A. niger was grown on malt extract (ME) agar plates) at 25 °C. When sufficient growth was observed, the mycelia were harvested by punching a hole in the growing fungi and transferring it to a new agar plate. The plate was incubated at 25 °C for 48 h to 72 h to allow formation of a radial mycelial colony. 6 mm discs impregnated with 20 μL of mO1 were placed equidistant (1 cm) from the growing ends of the mycelia and incubated for 24 h at 25 °C. Deionized water was used as a negative control. Formation of arc-shaped inhibition zones indicated susceptibility to mO1.

[3] = test system: Alternaria alternata (CICC 2465); assay: Disc diffusion assay; assay type: cell-based; conditions: 17.5 to 70 μg mO1 on 6 mm discs, PDA plates, 24 h at 25 °C
Description: as §1

[4] = Proteolytic enzyme stability assay, pepsin; assay type: in vitro ADME; conditions: isolated enzyme pepsin, 100 mM sodium citrate pH 4.5, 37 °C, peptide:enzyme 20:1 (w/w), RP-UPLC area under the curve, MALDI-TOF MS, read-out: peptide remained intact after pepsin treatment
Description: (§2) Purified mO1 was incubated at 37 °C with pepsin or carboxypeptidase A in 100 mM sodium citrate (pH 4.5) or 50 mM Tris–HCl with 100 mM NaCl (pH 7.5) at a final peptide to enzyme ratio (w/w) of 20:1 and 50:1, respectively. At each time point (0, 2, 4, 6 h) 50 μL of the sample was injected into the UPLC system, and the mass of peaks collected were analyzed by MALDI-TOF MS. A linear peptide WV-14 (WRLYRGRLYRRNHV) synthesized in-house was used as a control.

[5] = Proteolytic enzyme stability assay, carboxypeptidase A; assay type: in vitro ADME; conditions: isolated enzyme carboxypeptidase, 50 mM Tris-HCl with 100 mM NaCl pH 7.5, 37 °C, peptide:enzyme 50:1 (w/w), RP-UPLC area under the curve, MALDI-TOF MS, read-out: peptide remained intact after carboxypeptidase A treatment
Description: as §2

Vero cells = assay: Cytotoxicity assay (PrestoBlue cell viability); assay type: cell-based; conditions: concentrations up to 100 μM (1–100 μM), 24 h, DMEM 10% FBS, absorbance 570 nm
Description: The cytotoxic effect of morintide, mO1 (1–100 μM) was tested on Vero cells (5 × 10^4 cells/ml) in Dulbecco’s modified Eagle’s medium (DMEM) supplemented with 10% fetal bovine serum (FBS) and 1% penicillin/streptomycin (PS). Vero cells (ATCC CCL-81) were a kind gift from Dr Liu Ding Xiang (School of Biological Sciences, Nanyang Technological University, Singapore). After 24 h of incubation, 10 μl of PrestoBlue® Cell Viability Reagent (Invitrogen, USA) was added to the wells and incubated at 37 °C for 1 h. After incubation, the absorbance was measured at 570 nm using a microplate reader.

[6] = Chitin binding assay with chitin beads
Description: Purified morintide (mO1) was incubated with chitin beads (New England Biolabs, Massachusetts, […]) in chitin binding buffer (140 mM NaCl, 10 mM Tris EDTA 1 mM; pH 8.0; then, 0.1% (v/v) Tween 20 was added) at 4 °C for 4 h. At each time point, the beads were centrifuged at 12,000 g for 1 min and the absorbance of the supernatant was read at 280 nm to assess binding. Elution of the bound peptide was performed using two methods. In the first method, 0.5 M acetic acid and heating at 100 °C for 30 min and 1 h was used, and in the second method, four elution buffers (10 mM Tris, 1 mM EDTA, 0.1% (v/v) Tween 20; pH 8.0) with increasing concentration of sodium chloride (300 mM, 500 mM, 700 mM, and 1 M) were used. Reduced and alkylated mO1 was used as a control. Supernatants were further analyzed by UPLC and MALDI-TOF to assess binding and elution.

RLYRRGRLYRRNHV [RV-14, linear peptide synthesized in the authors' laboratory, control in the thermal stability assay, reference compound]
peptide degraded on heating [1]: More than 50%

[pGlu]NCGRQAGNRACANQLCCSQYGFCGSTSEYCSRANGCQSNCRG (disulfide 3-18, 12-24, 17-31, 37-41) [mO1]
peptide remained intact after heating ([1]; 40 μg in water, 100 °C for 1 h, area under the curve of RP-UPLC chromatograms): more than 95% | susceptibility (crescent-/arc-shaped inhibition zones) [2]: susceptible | susceptibility (crescent-/arc-shaped inhibition zones) [3]: susceptible | remaining at 6 h [4]: > 95% | remaining at 6 h [5]: > 95% | cytotoxic effect on Vero cells (Vero cells): No significant cytotoxic effect | time for elution from chitin beads with 0.5 M acetic acid with heating at 100 °C ([6]; 0.5 M acetic acid, 100 °C, RP-UPLC): 1 h | elution from chitin beads with elution buffers with up to 1 M NaCl ([6]; elution buffers 10 mM Tris, 1 mM EDTA, 0.1% Tween 20, pH 8.0 with 300 mM, 500 mM, 700 mM, 1 M NaCl): could not be eluted | time for elution from chitin beads in acidic conditions at high temperature ([6]; legend of Figure S2, acidic conditions at high temperature): 30 min
